Publication PMC10987543 (Cell Death Discovery, 2024)
Peptide text beside a SMILES is read from it. * marks the point of attachment. Cbz = O=C(OCc1ccccc1)*; CH2F = FC*

What was measured:
[1] = system: 4T1 cells; test: LDH release assay (CyQUANT); format: cell-based, murine; conditions: N = 3; for effect of inhibitor pretreatment on CKS1-induced release of LDH: 30 min pre-treatment (50 µM Z-VAD, 50 µM Nec-1s, 1 µM Fer-1), then 100 µM CKS1 6 hours; for release of LDH (oncolytic activity): 100 µM of the indicated peptides for 6 h, normalized to lysis buffer
Experimental: Ten thousand cells were seeded in a 96-well plate and incubated overnight. The cells were washed once, and the medium was replaced with serum-free media. Cells were treated with CKS1 for the indicated time and concentration. CyQUANT LDH cytotoxicity assay (Thermo Fisher Scientific) was used following the manufacturer’s instructions to measure the release of LDH. LDH release was normalized to the amount of LDH released from cells treated with lysis buffer.

[2] = system: 4T1 cells; test: Calcein-AM live cell imaging of cytosol release; format: cell-based, murine; conditions: 4T1 cells, 50 µM Z-VAD 30 minutes, then 100 µM CKS1
Experimental: Fluorescence labeling of cells was performed by seeding 5.0 × 10^4 4T1 cells in a 35 mm dish on a collagen-coated No. 1.5 coverslip with a 14 mm glass diameter (MatTek, Ashland, MA). After overnight incubation, the cells were washed once with serum-free media and replaced with fresh serum-free media. For cell cytosol labeling, Calcein-AM (Thermo Fisher Scientific, C1430) was added at a final concentration of 5 µg/mL and incubated for 10 min. For mitochondrial membrane labeling, JC-1 (Thermo Fisher Scientific, T3168) was added at a final concentration of 10 µg/mL and incubated for 10 min. To monitor the activity of caspases, CellEvent Caspase-3/7 Red detection reagents (Thermo Fisher Scientific, C10423) were used following the manufacturer’s instructions. For nuclear staining, Hoechst 33342 (Cell Signaling Technology, #4082) was added at a final concentration of 5 µg/mL and incubated for 10 min.
Cells were imaged on either a Zeiss LSM 700 or a 3i spinning disk confocal microscope. Samples were imaged with optimized microscope settings. Z-stack, time-lapse, or multi-channel acquisition settings were adjusted based on the experimental requirements. Images were then acquired with the appropriate excitation and emission wavelengths for each fluorophore.
Image processing was performed using Fiji software. For each image/video, the brightness and the contrast were adjusted. The time stamp and the scale bar were added. For quantification, CellProfiler was used. After cell segmentation based on the nucleus, the intensity of the signal of interest was quantified for each cell. Based on the intensity, each cells were labeled as positive or negative and the fraction of positive cells was calculated.

[3] = Solubility in water; conditions: data not shown
[4] = system: caspase-3; conditions: cited from earlier work
Description: The factors that determine whether a peptide induces apoptosis or not are not fully known. […] Although the mechanism of how CKS1 treatment affects the mitochondria remains unanswered, the malfunctioning of mitochondria caused by CKS1 may be the ...

Row | Molecule | effect of inhibitor pretreatment on CKS1-induced release of LDH [1] | release of LDH (oncolytic activity) [1] | also measured
1 | CCOC(=O)c1ccc(NC2CCCCC2)c(N)c1 [Fer-1, ferrostatin-1, reference compound] | did not inhibit the release of LDH | – | –
2 | CN1C(=O)NC(Cc2c[nH]c3c(Cl)cccc23)C1=O (stereo not shown) [Nec-1s, necrostatin-1 stable, reference compound] | did not inhibit the release of LDH | – | –
3 | COC(=O)C[C@H](NC(=O)[C@H](C)NC(=O)[C@@H](NC(=O)OCc1ccccc1)C(C)C)C(=O)CF [Z-VAD, reference compound] (Cbz-Val-Ala-Asp(OMe)-CH2F) | did not inhibit the release of LDH | – | effect of inhibitor pretreatment on CKS1-induced release of calcein [2]: did not inhibit nor slow down the release of calcein
4 | IVKKIIEKMLNS [helical region of CKS1, peptide that only contains the C-terminal helical region of CKS1] | – | induced LDH release | solubility in water [3]: poorly soluble in water
5 | LTX-315 | – | – | caspase-3 activity [4]: failed to stimulate caspase-3 activity
6 | NGRKACLNPASP [loop region of CKS1, peptide that contains the N-terminal loop region of CKS1] | – | did not | –
7 | NGRKACLNPASPIVEEIIEEMLNS [NC1, mutant of CKS1, three lysines replaced with glutamic acids, anionic] | – | did not show oncolytic activity | –
8 | NGRKACLNPASPIVKKIIPEKMLNS [NC2, mutant of CKS1, single proline inserted in the middle of the α-helix] | – | did not show oncolytic activity | –
